Laboratory results from patent US20030130287A1, “Piperidine and piperazine derivatives which function as 5-ht2a receptor antagonists” (priority 2000, published 2003).
Counter-ions that a name gives are not always drawn.

Legend:
[1] = molecular target: T1, 5-HT2A receptors (Rattus norvegicus, UniProt P14842); assay: [3H]ketanserine displacement at 5-HT2A receptors (Example A1); format: binding; settings: frontal rat cortex homogenate, 15 minutes at 37° C.
T1 construct: Frontal rat cortex is homogenized in ice-cold buffer; from tissue; host or cells: rat frontal cortex homogenate (membrane pellet)
Experimental: For the in-vitro detection of affinity to 5-HT2A receptors, the following test (Example A1), for example, can be used. The 5-HT2A receptors are exposed both to [^3H]ketanserine (a substance which is known for its affinity to the receptor) and also to the test compound. The decrease in the affinity of [^3H]ketanserine to the receptor is an indication of the affinity of the test substance to the 5-HT2A receptor. The detection is carried out analogously to the description by J. E. Leysen et al., Molecular Pharmacology, 1982, 21: 301-314, or as also described, for example, in EP 0320983.
Preparation of a Suspension of 5-HT2A Receptors:
Frontal rat cortex is homogenized in ice-cold buffer. The homogenate is centrifuged for 10 minutes at 4° C. and 50,000 X. The pellet is re-suspended in 2.5 ml of ice-cold tris buffer, made up to 10 ml with additional buffer and centrifuged as described. The pellet is then re-suspended in buffer and diluted to give a homogenate comprising 60 mg of material/ml. 0.1 ml of the suspension, 100 μl of a 5 nM solution of [^3H]ketanserine and 100 μl of a solution of the test compound (concentration in the range from 10^−5 to 10^−10 mol per litre) are introduced into the incubation tubes and made up to 1 ml with buffer. The tubes are incubated for 15 minutes at 37° C. After the incubation has been terminated by dipping the tubes into an ice bath, the cooled suspension is filtered through a glass filter under reduced pressure. The filters are washed 3× with 5 ml of cold buffer and then transferred into scintillation tubes. The filters are analysed by liquid scintillation spectrometry in 8 ml of Triton-X scintillator liquid.

T1 sequence (P14842 whole entry): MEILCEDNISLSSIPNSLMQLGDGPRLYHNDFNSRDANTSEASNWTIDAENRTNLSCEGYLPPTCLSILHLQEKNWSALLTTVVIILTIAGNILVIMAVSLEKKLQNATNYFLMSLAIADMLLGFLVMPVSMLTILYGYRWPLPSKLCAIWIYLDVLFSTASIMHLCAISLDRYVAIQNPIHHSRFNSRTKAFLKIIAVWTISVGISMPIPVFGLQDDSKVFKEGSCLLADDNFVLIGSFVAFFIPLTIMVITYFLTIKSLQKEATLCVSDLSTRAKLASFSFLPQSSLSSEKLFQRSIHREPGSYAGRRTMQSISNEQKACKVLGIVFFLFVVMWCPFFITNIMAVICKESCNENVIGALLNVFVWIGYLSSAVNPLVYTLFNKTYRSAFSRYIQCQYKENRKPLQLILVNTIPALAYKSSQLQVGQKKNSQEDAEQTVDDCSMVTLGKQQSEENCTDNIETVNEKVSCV

Row | SMILES | IC50 [1] | melting point
1 | O=S(=O)(c1cccc2nonc12)N1CCN(CCc2ccc(F)cc2)CC1 [compound 5, 4-(2,1,3-Benzoxadiazol-4-ylsulfonyl)-1-[2-(4-fluorophenyl)ethyl]piperazine] | 44 nM | –
2 | O=S(=O)(c1cccc2cccnc12)N1CCN(CCc2ccc(F)cc2)CC1 (as salt: hydrochloride) [compound 1, 4-(8-Quinolinesulfonyl)-1-[2-(4-fluorophenyl)ethyl]piperazine] | – | 141 °C
3 | Fc1ccc(CCN2CCC(Sc3cccc(Cl)n3)CC2)cc1 (as salt: hydrochloride) [Example 2, 2-chloro-6-{1-[2-(4-fluorophenyl)ethyl]piperidin-4-ylsulfanyl}pyridine] | – | 237 to 240 °C
4 | O=[N+]([O-])c1ccccc1S(=O)(=O)N1CCN(CCc2ccc(F)cc2)CC1 [compound 6, 4-(2-Nitrophenylsulfonyl)-1-[2-(4-fluorophenyl)ethyl]piperazine] | 9.2 nM | –
5 | O=S(=O)(c1ccc2c(c1)CCN2)N1CCN(CCc2ccc(F)cc2)CC1 [compound 7, 4-(2,3-Dihydro-1H-indole-5-sulfonyl)-1-[2-(4-fluorophenyl)ethyl]piperazine] | 13 nM | –
6 | [O-][S+](c1cccc(Cl)n1)C1CCN(CCc2ccc(F)cc2)CC1 (stereo not shown) (as salt: hydrochloride) [Example 3, 2-chloro-6-{1-[2-(4-fluorophenyl)ethyl]piperidine-4-sulfinyl}pyridine] | – | 208 °C
7 | O=S(=O)(c1ccc(F)cc1)N1CCN(CCc2ccc(F)cc2)CC1 [compound 3, 4-(4-Fluorophenylsulfonyl)-1-[2-(4-fluorophenyl)ethyl]piperazine] | 25 nM | –

Second part, the molecule after the results:

Row | IC50 [1] | melting point | SMILES
8 | 1.6 nM | – | N#Cc1c[nH]c2ccc(S(=O)(=O)N3CCN(CCc4ccc(F)cc4)CC3)cc12 [compound 8, 4-(3-Cyano-1H-indole-5-sulfonyl)-1-[2-(4-fluorophenyl)ethyl]piperazine]
9 | 2.1 nM | – | O=S(=O)(c1ccc(F)cc1)C1CCN(CCc2ccc(F)cc2)CC1 [compound 9, 4-(4-Fluorophenylsulfonyl)-1-(2-(4-fluorophenyl)ethyl]piperidine]
10 | 1.3 nM | – | O=S(=O)(c1cccc2cccnc12)N1CCN(CCc2ccc(F)cc2)CC1 [compound 1, 4-(8-Quinolinesulfonyl)-1-[2-(4-fluorophenyl)ethyl]piperazine]
11 | 8.1 nM | – | O=S(=O)(c1cccc2ccccc12)N1CCN(CCc2ccc(F)cc2)CC1 [compound 2, 4-(1-Naphthylsulfonyl)-1-[2-(4-fluorophenyl)ethyl]piperazine]
12 | 0.6 nM | – | O=S(=O)(c1cccc(Cl)n1)C1CCN(CCc2ccc(F)cc2)CC1 [compound 10, 2-Chloro-6-{1-[2-(4-fluorophenyl)ethyl]piperidin-4-sulfonyl}pyridine]
13 | 7.4 nM | – | CC(=O)Nc1cccc2c(S(=O)(=O)N3CCN(CCc4ccc(F)cc4)CC3)cccc12 [compound 4, 4-(5-Acetamidonaphth-1-yl-sulfonyl)-1-[2-(4-fluorophenyl)ethyl]piperazine]
